In ChEMBL document CHEMBL5649169 (ChemMedChem, 2018):

How the values were obtained:
[1] = biological target: Ephrin type-A receptor 7 (Homo sapiens, UniProt Q15375)
[2] = biological target: Iron-sulfur clusters transporter ABCB7, mitochondrial (Homo sapiens) (UniProt O75027)
[3] = biological target: Fatty acid CoA ligase Acsl3 (Homo sapiens) (UniProt O95573)
[4] = biological target: Serine-protein kinase ATM (Homo sapiens) (UniProt Q13315)
[5] = biological target: B-cell receptor-associated protein 31 (Homo sapiens) (UniProt P51572)
[6] = biological target: T-complex protein 1 subunit delta (Homo sapiens) (UniProt P50991)
[7] = biological target: Ceroid-lipofuscinosis neuronal protein 6 (Homo sapiens) (UniProt Q9NWW5)
[8] = biological target: Coatomer subunit gamma-2 (Homo sapiens) (UniProt Q9UBF2)
[9] = biological target: Src substrate cortactin (Homo sapiens) (UniProt Q14247)
[10] = biological target: ATP-dependent RNA helicase DDX18 (Homo sapiens) (UniProt Q9NVP1)
[11] = biological target: Derlin-1 (Homo sapiens) (UniProt Q9BUN8)
[12] = biological target: Cytoplasmic dynein 1 light intermediate chain 1 (Homo sapiens) (UniProt Q9Y6G9)
[13] = organism: Homo sapiens
[14] = biological target: Galactocerebrosidase (Homo sapiens) (UniProt P54803)
[15] = biological target: Neutral alpha-glucosidase AB (Homo sapiens) (UniProt Q14697)
[16] = biological target: Gem-associated protein 5 (Homo sapiens) (UniProt Q8TEQ6)
[17] = biological target: Glia maturation factor gamma (Homo sapiens) (UniProt O60234)
[18] = biological target: Trifunctional enzyme subunit beta, mitochondrial (Homo sapiens) (UniProt P55084)
[19] = biological target: Adenosine 5'-monophosphoramidase HINT1 (Homo sapiens) (UniProt P49773)
[20] = biological target: Heterogeneous nuclear ribonucleoprotein D0 (Homo sapiens) (UniProt Q14103)
[21] = biological target: Importin-5 (Homo sapiens) (UniProt O00410)
[22] = biological target: Importin-8 (Homo sapiens) (UniProt O15397)
[23] = biological target: Lipopolysaccharide-responsive and beige-like anchor protein (Homo sapiens) (UniProt P50851)
[24] = biological target: Mitogen-activated protein kinase kinase kinase 6 (Homo sapiens) (UniProt O95382)
[25] = biological target: Protein MON2 homolog (Homo sapiens) (UniProt Q7Z3U7)
[26] = biological target: Small ribosomal subunit protein mS27 (Homo sapiens) (UniProt Q92552)
[27] = biological target: Cytochrome c oxidase subunit 2 (Homo sapiens) (UniProt P00403)
[28] = biological target: Serine/threonine-protein kinase mTOR (Homo sapiens) (UniProt P42345)
[29] = biological target: Nucleolin (Homo sapiens) (UniProt P19338)
[30] = biological target: Phosphoenolpyruvate carboxykinase [GTP], mitochondrial (Homo sapiens) (UniProt Q16822)
[31] = biological target: Protein phosphatase 1G (Homo sapiens) (UniProt O15355)
[32] = biological target: Protein kinase C alpha type (Homo sapiens) (UniProt P17252)
[33] = biological target: Protein kinase C beta type (Homo sapiens) (UniProt P05771)
[34] = biological target: Peripherin (Homo sapiens) (UniProt P41219)
[35] = biological target: 26S proteasome non-ATPase regulatory subunit 12 (Homo sapiens) (UniProt O00232)
[36] = biological target: Large ribosomal subunit protein uL23 (Homo sapiens) (UniProt P62750)
[37] = biological target: Small ribosomal subunit protein eS6 (Homo sapiens) (UniProt P62753)
[38] = biological target: Serine/threonine-protein kinase SIK2 (Homo sapiens) (UniProt Q9H0K1)
[39] = biological target: S-phase kinase-associated protein 2 (Homo sapiens) (UniProt Q13309)
[40] = biological target: ADP/ATP translocase 2 (Homo sapiens) (UniProt P05141)
[41] = biological target: ADP/ATP translocase 3 (Homo sapiens) (UniProt P12236)
[42] = biological target: Signal recognition particle subunit SRP68 (Homo sapiens) (UniProt Q9UHB9)
[43] = biological target: Transformer-2 protein homolog beta (Homo sapiens) (UniProt P62995)
[44] = biological target: Non-receptor tyrosine-protein kinase TYK2 (Homo sapiens) (UniProt P29597)
[45] = biological target: Ubiquitin-conjugating enzyme E2 L3 (Homo sapiens) (UniProt P68036)
[46] = biological target: Vitamin K epoxide reductase complex subunit 1-like protein 1 (Homo sapiens) (UniProt Q8N0U8)
[47] = biological target: Zinc finger CCCH domain-containing protein 11A (Homo sapiens) (UniProt O75152)
Note: assay method not described here.

Chain of S-phase kinase-associated protein 2 (Homo sapiens) (Q13309 whole entry): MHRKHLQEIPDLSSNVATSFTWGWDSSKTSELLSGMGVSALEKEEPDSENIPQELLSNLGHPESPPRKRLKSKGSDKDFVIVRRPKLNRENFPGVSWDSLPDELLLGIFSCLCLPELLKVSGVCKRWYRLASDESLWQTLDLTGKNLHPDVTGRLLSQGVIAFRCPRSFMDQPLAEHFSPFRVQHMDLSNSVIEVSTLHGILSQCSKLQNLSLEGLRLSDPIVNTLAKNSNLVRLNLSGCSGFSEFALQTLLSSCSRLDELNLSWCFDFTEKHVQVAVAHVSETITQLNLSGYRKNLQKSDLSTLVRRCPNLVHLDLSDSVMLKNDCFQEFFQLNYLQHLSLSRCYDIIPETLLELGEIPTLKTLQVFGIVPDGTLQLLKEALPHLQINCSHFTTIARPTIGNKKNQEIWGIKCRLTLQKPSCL
Chain of Protein kinase C beta type (Homo sapiens) (P05771 2-671 limits assumed): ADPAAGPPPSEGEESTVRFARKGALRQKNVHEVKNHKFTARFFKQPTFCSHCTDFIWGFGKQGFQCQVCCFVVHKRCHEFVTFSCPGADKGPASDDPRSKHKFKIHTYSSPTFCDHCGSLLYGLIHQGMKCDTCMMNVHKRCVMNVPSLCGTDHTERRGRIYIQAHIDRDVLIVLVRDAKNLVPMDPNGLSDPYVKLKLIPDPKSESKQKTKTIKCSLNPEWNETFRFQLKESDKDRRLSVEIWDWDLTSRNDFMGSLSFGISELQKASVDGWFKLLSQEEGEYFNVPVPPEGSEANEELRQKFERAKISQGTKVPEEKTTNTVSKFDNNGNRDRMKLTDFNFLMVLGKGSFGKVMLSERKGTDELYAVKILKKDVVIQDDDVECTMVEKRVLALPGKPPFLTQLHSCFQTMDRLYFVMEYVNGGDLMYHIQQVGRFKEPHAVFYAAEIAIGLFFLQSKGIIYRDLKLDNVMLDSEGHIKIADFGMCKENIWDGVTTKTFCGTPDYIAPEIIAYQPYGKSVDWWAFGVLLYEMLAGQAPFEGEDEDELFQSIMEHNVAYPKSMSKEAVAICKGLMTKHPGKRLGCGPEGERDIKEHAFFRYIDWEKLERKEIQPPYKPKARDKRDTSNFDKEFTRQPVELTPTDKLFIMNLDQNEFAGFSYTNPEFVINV
Chain of Glia maturation factor gamma (Homo sapiens) (O60234 whole entry): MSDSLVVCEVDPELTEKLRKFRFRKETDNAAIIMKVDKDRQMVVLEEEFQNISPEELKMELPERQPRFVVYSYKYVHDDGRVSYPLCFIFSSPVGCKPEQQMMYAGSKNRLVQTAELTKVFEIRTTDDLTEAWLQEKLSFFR
Chain of Src substrate cortactin (Homo sapiens) (Q14247 whole entry): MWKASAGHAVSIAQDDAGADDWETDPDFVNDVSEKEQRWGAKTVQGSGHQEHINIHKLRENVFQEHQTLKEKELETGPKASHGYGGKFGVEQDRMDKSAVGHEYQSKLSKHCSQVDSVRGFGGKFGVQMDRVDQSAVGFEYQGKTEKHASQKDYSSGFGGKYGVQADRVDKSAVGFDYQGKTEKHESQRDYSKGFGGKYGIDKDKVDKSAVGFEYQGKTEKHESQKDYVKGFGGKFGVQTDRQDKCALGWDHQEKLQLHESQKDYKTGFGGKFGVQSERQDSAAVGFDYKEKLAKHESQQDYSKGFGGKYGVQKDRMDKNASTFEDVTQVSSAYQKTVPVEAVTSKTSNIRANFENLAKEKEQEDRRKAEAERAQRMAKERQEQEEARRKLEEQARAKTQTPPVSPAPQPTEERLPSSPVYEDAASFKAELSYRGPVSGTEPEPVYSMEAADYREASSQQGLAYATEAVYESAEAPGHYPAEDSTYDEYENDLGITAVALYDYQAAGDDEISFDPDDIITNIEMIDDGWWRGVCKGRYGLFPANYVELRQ
Chain of Trifunctional enzyme subunit beta, mitochondrial (Homo sapiens) (P55084 whole entry): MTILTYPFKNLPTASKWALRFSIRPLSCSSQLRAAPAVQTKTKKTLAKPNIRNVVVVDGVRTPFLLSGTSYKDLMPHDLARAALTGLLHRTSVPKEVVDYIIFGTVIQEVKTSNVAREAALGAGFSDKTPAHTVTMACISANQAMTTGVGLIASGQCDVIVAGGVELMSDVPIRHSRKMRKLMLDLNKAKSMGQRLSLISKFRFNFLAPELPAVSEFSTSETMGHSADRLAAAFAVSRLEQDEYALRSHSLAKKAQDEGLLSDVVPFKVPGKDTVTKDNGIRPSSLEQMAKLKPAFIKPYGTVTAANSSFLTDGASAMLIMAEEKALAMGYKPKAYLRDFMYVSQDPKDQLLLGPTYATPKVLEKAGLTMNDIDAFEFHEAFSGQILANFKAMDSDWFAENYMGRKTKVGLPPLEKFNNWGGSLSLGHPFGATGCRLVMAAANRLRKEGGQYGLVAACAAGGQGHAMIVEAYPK
Chain of Ephrin type-A receptor 7 (Q15375 28-998 limits assumed): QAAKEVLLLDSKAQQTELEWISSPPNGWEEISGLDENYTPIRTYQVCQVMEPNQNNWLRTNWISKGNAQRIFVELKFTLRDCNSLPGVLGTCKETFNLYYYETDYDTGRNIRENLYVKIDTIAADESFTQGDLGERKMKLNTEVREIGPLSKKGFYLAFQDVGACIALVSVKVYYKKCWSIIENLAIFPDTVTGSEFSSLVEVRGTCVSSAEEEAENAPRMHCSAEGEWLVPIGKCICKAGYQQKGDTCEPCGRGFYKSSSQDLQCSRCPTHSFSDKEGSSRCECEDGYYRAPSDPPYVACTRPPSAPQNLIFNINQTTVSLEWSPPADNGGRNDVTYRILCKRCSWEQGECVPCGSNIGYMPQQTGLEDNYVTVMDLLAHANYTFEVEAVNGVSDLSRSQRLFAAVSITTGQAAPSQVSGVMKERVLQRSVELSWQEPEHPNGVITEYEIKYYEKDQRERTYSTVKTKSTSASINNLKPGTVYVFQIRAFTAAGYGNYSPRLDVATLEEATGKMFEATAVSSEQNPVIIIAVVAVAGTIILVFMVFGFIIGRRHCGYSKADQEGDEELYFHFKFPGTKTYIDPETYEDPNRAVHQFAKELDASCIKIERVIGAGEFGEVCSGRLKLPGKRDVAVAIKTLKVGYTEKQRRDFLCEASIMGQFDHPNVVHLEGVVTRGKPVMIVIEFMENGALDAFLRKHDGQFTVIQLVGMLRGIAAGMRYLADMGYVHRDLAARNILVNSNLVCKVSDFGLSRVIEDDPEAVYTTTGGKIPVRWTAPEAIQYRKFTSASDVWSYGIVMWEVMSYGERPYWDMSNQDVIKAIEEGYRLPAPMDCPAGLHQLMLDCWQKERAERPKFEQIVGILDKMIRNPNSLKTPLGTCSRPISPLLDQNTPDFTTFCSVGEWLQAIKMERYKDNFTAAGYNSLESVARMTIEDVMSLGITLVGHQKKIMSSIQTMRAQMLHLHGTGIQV
Chain of Cytoplasmic dynein 1 light intermediate chain 1 (Homo sapiens) (Q9Y6G9 whole entry): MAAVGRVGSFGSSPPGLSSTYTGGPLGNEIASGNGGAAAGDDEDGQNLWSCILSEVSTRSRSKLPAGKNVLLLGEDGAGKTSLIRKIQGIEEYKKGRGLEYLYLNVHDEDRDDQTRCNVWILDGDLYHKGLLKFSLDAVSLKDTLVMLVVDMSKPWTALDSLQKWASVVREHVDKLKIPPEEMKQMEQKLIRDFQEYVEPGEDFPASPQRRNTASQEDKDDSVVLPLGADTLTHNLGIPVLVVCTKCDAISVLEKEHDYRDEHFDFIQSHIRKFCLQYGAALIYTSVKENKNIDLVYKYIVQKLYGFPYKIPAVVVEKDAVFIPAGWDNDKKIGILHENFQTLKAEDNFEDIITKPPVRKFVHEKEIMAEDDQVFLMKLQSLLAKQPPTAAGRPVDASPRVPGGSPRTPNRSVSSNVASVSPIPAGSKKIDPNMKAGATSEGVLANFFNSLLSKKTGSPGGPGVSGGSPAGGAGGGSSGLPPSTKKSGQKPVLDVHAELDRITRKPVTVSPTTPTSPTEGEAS
Chain of Serine/threonine-protein kinase SIK2 (Homo sapiens) (Q9H0K1 whole entry, looked up): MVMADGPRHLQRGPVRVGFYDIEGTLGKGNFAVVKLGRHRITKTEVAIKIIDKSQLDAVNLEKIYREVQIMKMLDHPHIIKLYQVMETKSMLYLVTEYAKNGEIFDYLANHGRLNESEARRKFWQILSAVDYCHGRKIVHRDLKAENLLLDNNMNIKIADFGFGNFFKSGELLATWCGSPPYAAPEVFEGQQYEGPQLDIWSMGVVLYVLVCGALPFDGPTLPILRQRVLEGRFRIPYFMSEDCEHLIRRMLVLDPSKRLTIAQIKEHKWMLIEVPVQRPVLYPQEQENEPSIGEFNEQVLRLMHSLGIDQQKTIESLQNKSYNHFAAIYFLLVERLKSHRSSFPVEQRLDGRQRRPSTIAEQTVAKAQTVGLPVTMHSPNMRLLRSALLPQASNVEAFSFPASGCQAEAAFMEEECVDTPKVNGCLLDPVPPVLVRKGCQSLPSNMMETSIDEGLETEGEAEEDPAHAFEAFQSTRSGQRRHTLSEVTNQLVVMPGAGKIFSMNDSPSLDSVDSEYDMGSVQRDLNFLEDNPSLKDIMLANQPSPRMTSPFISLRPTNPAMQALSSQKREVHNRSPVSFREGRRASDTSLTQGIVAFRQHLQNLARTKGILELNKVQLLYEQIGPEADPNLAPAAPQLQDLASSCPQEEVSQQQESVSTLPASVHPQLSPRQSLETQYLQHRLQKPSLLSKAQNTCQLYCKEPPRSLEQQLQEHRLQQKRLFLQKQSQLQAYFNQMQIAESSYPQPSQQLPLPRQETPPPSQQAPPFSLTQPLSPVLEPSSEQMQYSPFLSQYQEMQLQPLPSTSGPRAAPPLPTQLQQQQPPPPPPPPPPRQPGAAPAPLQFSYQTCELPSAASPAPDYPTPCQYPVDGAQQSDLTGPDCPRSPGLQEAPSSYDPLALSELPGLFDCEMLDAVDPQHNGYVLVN
Chain of Ceroid-lipofuscinosis neuronal protein 6 (Homo sapiens) (Q9NWW5 whole entry): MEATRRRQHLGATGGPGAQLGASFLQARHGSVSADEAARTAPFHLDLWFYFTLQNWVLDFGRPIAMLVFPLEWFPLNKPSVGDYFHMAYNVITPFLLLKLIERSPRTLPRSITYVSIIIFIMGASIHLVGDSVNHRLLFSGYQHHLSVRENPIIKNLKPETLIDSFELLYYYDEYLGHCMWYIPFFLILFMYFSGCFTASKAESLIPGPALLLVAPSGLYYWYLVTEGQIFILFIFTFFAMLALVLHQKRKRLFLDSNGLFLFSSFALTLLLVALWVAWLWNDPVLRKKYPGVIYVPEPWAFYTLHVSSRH

Compound Cc1ccc(C(=O)Nc2cccc(C(F)(F)F)c2)cc1Nc1nc(-c2cccnc2)nc2nn(C)cc12 has an ED50 [1] of 1.49 µM, an ED50 [2] of 0.0289 µM and an ED50 [3] of 37.2 µM. For the same compound, the ED50 [4] was 1.99 µM, the ED50 [5] was 1.7 µM and the ED50 [6] was 26.8 µM. For the same compound, the ED50 [7] was 1910 µM, the ED50 [8] was 0.051 µM and the ED50 [9] was 19.6 µM. For the same compound, the ED50 [10] was 0.0164 µM, the ED50 [11] was 28 µM and the ED50 [12] was 0.897 µM. It also gave an ED50 [13] of 9.29 µM, an ED50 [14] of 8.73 µM and an ED50 [15] of 0.0402 µM. For the same compound, the ED50 [16] was 0.232 µM, the ED50 [17] was 0.00291 µM and the ED50 [18] was 0.00935 µM. For the same compound, the ED50 [19] was 0.318 µM, the ED50 [20] was 0.0267 µM and the ED50 [21] was 0.342 µM. It also gave an ED50 [22] of 25.8 µM, an ED50 [23] of 0.167 µM and an ED50 [24] of 8.27 µM. The ED50 [25] was 0.191 µM, the ED50 [26] was 0.835 µM and the ED50 [27] was 0.153 µM. For the same compound, the ED50 [28] was 0.443 µM, the ED50 [29] was 30.3 µM and the ED50 [30] was 0.429 µM. The ED50 [31] was 35 µM, the ED50 [32] was 0.00201 µM and the ED50 [33] was 0.875 µM. It also gave an ED50 [34] of 1.74 µM, an ED50 [35] of 0.0504 µM and an ED50 [36] of 0.0137 µM. It also gave an ED50 [37] of 0.061 µM, an ED50 [38] of 8.18 µM and an ED50 [39] of 0.00261 µM. It also gave an ED50 [40] of 0.186 µM, an ED50 [41] of 0.122 µM and an ED50 [42] of 0.0188 µM. For the same compound, the ED50 [43] was 0.537 µM, the ED50 [44] was 1.13 µM and the ED50 [45] was 0.32 µM. The ED50 [46] was 2.51 µM and the ED50 [47] was 3.88 µM.
Work on Cc1ccc(C(=O)Nc2cccc(C(F)(F)F)c2)cc1Nc1nc(-c2cccnc2)nc2c1cnn2C yielded an ED50 [1] of 15.8 µM, an ED50 [2] of 0.0622 µM and an ED50 [3] of 5.73 µM. It also gave an ED50 [4] of 8680 µM, an ED50 [5] of 0.0691 µM and an ED50 [6] of 1.63 µM. The ED50 [7] was 12.5 µM, the ED50 [8] was 7.49 µM and the ED50 [9] was 0.0605 µM. It also gave an ED50 [10] of 0.0244 µM, an ED50 [11] of 13.9 µM and an ED50 [12] of 0.0244 µM. The ED50 [13] was 3.14 µM, the ED50 [14] was 3.18 µM and the ED50 [15] was 4.09 µM. The ED50 [16] was 105 µM, the ED50 [17] was 70.9 µM and the ED50 [18] was 0.655 µM. It also gave an ED50 [19] of 0.00551 µM, an ED50 [20] of 1.15 µM and an ED50 [21] of 0.00445 µM. For the same compound, the ED50 [22] was 49.5 µM, the ED50 [23] was 982 µM and the ED50 [24] was 1.26 µM. It also gave an ED50 [25] of 0.00382 µM, an ED50 [26] of 0.099 µM and an ED50 [27] of 0.449 µM. For the same compound, the ED50 [28] was 11.6 µM, the ED50 [29] was 2.79 µM and the ED50 [30] was 0.398 µM. The ED50 [31] was 0.442 µM, the ED50 [32] was 0.151 µM and the ED50 [33] was 10.9 µM. The ED50 [34] was 0.178 µM, the ED50 [35] was 3.2 µM and the ED50 [36] was 0.105 µM. The ED50 [37] was 0.0144 µM, the ED50 [38] was 2.14 µM and the ED50 [39] was 4.82 µM. It also gave an ED50 [40] of 2.54 µM, an ED50 [41] of 2.19 µM and an ED50 [42] of 4.09 µM. The ED50 [43] was 0.0121 µM, the ED50 [44] was 69.7 µM and the ED50 [45] was 5.79 µM. The ED50 [46] was 5.89 µM and the ED50 [47] was 0.149 µM.
